In ChEMBL document CHEMBL1132550, “Modeling of amino-terminal domains of group I metabotropic glutamate receptors: structural motifs affecting ligand selectivity” (J Med Chem, 1999):

Tests used:
[1] = target: Metabotropic glutamate receptor 5 (Homo sapiens, UniProt P41594); assay: Compound was tested for it's […] activity against Ser152 and Thr175 (Metabotropic glutamate receptor 5); format: functional
[2] = target: Metabotropic glutamate receptor 1 (Homo sapiens, UniProt Q13255); assay: Compound was tested for its […] activity against Ser165 and Thr188 (Metabotropic glutamate receptor 1) receptor.; format: functional
Sequence of Metabotropic glutamate receptor 1 (Q13255 whole entry): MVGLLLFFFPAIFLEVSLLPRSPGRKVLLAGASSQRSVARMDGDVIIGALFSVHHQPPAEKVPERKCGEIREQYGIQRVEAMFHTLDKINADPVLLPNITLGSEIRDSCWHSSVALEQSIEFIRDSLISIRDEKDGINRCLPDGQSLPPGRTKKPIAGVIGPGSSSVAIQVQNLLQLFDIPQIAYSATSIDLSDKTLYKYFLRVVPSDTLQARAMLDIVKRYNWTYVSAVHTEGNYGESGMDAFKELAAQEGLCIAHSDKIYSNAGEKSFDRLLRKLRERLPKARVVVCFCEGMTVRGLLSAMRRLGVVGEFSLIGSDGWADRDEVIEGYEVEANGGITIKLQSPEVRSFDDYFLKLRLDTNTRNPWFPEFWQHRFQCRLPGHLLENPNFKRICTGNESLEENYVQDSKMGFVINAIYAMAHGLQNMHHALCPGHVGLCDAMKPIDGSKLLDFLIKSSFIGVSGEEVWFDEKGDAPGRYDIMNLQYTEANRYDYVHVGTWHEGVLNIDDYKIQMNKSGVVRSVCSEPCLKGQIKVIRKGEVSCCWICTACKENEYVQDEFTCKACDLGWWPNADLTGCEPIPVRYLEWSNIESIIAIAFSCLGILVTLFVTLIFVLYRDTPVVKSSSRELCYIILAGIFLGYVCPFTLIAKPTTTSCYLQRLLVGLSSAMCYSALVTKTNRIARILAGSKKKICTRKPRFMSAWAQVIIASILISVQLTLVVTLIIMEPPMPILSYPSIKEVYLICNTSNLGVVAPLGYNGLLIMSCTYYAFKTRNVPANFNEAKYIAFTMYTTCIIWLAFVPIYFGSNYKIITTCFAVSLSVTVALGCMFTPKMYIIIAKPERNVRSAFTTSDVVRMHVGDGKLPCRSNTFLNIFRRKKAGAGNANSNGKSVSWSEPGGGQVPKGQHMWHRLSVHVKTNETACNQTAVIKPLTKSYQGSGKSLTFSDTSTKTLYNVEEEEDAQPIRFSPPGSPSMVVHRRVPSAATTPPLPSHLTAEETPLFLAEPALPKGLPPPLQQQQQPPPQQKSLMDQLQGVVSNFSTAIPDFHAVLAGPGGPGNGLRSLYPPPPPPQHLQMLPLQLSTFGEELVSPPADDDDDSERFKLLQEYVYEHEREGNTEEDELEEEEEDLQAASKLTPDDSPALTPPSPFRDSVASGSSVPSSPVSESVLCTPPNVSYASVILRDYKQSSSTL

Sequence of Metabotropic glutamate receptor 5 (P41594 whole entry): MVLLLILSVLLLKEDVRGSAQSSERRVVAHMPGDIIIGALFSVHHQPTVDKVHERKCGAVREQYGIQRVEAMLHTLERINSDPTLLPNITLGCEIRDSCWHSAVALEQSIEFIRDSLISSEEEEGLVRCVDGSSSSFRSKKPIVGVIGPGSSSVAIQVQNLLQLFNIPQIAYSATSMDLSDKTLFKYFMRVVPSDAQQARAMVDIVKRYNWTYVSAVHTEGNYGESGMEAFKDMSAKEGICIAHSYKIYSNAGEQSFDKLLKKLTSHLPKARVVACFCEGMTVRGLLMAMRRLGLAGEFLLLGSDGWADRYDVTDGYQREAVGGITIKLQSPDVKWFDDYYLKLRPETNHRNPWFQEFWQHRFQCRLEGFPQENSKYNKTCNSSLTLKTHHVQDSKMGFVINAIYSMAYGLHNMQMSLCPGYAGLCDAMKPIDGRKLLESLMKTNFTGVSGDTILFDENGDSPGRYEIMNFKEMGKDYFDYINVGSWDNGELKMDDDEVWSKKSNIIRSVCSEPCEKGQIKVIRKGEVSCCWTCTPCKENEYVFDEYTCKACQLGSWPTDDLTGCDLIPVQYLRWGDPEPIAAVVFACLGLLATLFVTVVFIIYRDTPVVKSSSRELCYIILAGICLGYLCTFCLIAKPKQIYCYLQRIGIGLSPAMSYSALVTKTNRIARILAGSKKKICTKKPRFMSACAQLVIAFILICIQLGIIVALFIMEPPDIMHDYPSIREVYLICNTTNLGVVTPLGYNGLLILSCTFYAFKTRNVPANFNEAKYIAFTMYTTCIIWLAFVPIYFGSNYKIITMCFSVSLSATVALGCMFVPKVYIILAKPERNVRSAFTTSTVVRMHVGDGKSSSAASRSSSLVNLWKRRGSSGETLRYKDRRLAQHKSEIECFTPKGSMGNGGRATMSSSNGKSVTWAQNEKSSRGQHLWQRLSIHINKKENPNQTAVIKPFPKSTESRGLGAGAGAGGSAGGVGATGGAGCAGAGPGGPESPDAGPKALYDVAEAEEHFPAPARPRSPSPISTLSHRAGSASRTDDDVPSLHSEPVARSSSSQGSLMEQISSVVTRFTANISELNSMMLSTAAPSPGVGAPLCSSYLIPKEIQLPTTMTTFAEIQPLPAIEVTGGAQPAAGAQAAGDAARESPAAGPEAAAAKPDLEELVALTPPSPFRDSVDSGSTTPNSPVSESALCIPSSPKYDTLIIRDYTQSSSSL

Row | Compound | EC50 [1] | IC50 [1] | IC50 [2] | EC50 [2]
1 | NC(C(=O)O)C12CC(C(=O)O)(C1)C2 (stereo not given) | 103 µM |  |  | 
2 | N[C@H](C(=O)O)c1cc(O)cc(O)c1 |  |  |  | 6.6 µM
3 | Cc1ccc(O)c(/N=N/c2ccccc2)n1 |  | 0.37 µM | > 100 µM | 
4 | Cc1cccc(/C=C/c2ccccc2)n1 |  | 0.29 µM | > 100 µM | 

Second part, the molecule after the results:

Row | EC50 [1] | IC50 [1] | IC50 [2] | EC50 [2] | Compound
5 | 750 µM |  |  |  | NC(C(=O)O)c1cc(O)ccc1Cl (stereo not given)
6 |  | > 1000 µM | 214 µM |  | N[C@]1(C(=O)O)CCc2cc(C(=O)O)ccc21
7 |  | > 100 µM |  |  | Cc1cc(C(=O)O)ccc1[C@H](N)C(=O)O
